Test results: PubChem BioAssay (NCI)
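Where inhibition never reached the appropriate level, the endpoint shown equals the highest concentration tested. Otherwise, values were interpolated linearly from a five-concentration, 48-hour dose response in 96-well plates. Abbreviation: GI50, concentration required for 50% inhibition of growth. TGI: total growth inhibition.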

How the values were obtained:
Assay in all cases: NCI-60 cell line screen, 48 h
[1] = system: HL-60(TB) leukemia
[2] = system: DU-145 prostate
[3] = system: SR leukemia
[4] = system: M14 melanoma
[5] = system: OVCAR-8 ovarian
[6] = system: UACC-257 melanoma
[7] = system: SK-MEL-2 melanoma
[8] = system: SF-295 CNS
[9] = system: COLO 205 colon
[10] = system: SK-OV-3 ovarian
[11] = system: UACC-62 melanoma
[12] = system: A549 NSCLC
[13] = system: OVCAR-5 ovarian
[14] = system: MALME-3M melanoma
[15] = system: NCI/ADR-RES ovarian
[16] = system: MDA-MB-468 breast
[17] = system: SNB-19 CNS
[18] = system: SNB-75 CNS
[19] = system: 786-0 renal
[20] = system: ACHN renal
[21] = system: HT29 colon
[22] = system: SF-539 CNS
[23] = system: MDA-MB-435
[24] = system: SW-620 colon
[25] = system: NCI-H522 lung
[26] = system: MOLT-4 leukemia
[27] = system: SK-MEL-28 melanoma
[28] = system: IGROV1 ovarian
[29] = system: BT-549 breast
[30] = system: U251 CNS
[31] = system: UO-31 renal
[32] = system: HCC-2998 colon
[33] = system: HOP-92 NSCLC
[34] = system: T-47D breast
[35] = system: TK-10 renal
[36] = system: A498 renal
[37] = system: RXF 393 renal
[38] = system: OVCAR-4 ovarian
[39] = system: SN12C renal
[40] = system: HCT-116 colon
[41] = system: SF-268 CNS
[42] = system: SK-MEL-5 melanoma
[43] = system: K-562 leukemia
[44] = system: OVCAR-3 ovarian
[45] = system: CCRF-CEM leukemia
[46] = system: HOP-62 NSCLC
[47] = system: PC-3 prostate
[48] = system: LOX IMVI melanoma
[49] = system: HCT-15 colon
[50] = system: HS 578T breast
[51] = system: CAKI-1 renal
[52] = system: MDA-MB-231 breast
[53] = system: NCI-H226 lung
[54] = system: NCI-H460 lung
[55] = system: KM12 colon
[56] = system: NCI-H23 lung
[57] = system: MCF7 breast
[58] = system: RPMI-8226 leukemia
[59] = system: EKVX NSCLC

`COc1ccc(-c2nc(S(=O)(=O)c3ccc(C)cc3)c(S(=O)(=O)CC(=O)N(C)Cc3ccccc3)o2)cc1` was tested, and the GI50 [1] was 16.3 µM, the TGI [1] was over 100 µM and the GI50 [2] was 10.2 µM. For the same compound, the TGI [2] was 21.8 µM, the GI50 [3] was 3.27 µM and the TGI [3] was over 100 µM. It also gave a GI50 [4] of 12.4 µM, a TGI [4] of 30.8 µM and a GI50 [5] of 13.3 µM. The TGI [5] was 28.9 µM, the GI50 [6] was 13.1 µM and the TGI [6] was 26.3 µM. It also gave a GI50 [7] of 13.8 µM, a TGI [7] of 27.4 µM and a GI50 [8] of 12.7 µM. For the same compound, the TGI [8] was 25.5 µM, the GI50 [9] was 12.2 µM and the TGI [9] was 41.7 µM. It also gave a GI50 [10] of 30.5 µM, a TGI [10] of over 100 µM and a GI50 [11] of 11.7 µM. The TGI [11] was 23.9 µM, the GI50 [12] was 14.6 µM and the TGI [12] was 33.6 µM. The GI50 [13] was 12.8 µM, the TGI [13] was 25.5 µM and the GI50 [14] was 14.8 µM. It also gave a TGI [14] of 29.6 µM, a GI50 [15] of 15.2 µM and a TGI [15] of 45.2 µM. It also gave a GI50 [16] of 2.41 µM, a TGI [16] of 8 µM and a GI50 [17] of 14.4 µM. The TGI [17] was 27.5 µM, the GI50 [18] was 4.82 µM and the TGI [18] was 18.7 µM. It also gave a GI50 [19] of 8.89 µM, a TGI [19] of 23 µM and a GI50 [20] of 10.8 µM. The TGI [20] was 22.7 µM, the GI50 [21] was 9.39 µM and the TGI [21] was 30.5 µM. The GI50 [22] was 10.7 µM, the TGI [22] was 22.5 µM and the GI50 [23] was 7.32 µM. It also gave a TGI [23] of 31.1 µM, a GI50 [24] of 4.25 µM and a TGI [24] of 17.5 µM. For the same compound, the GI50 [25] was 2.19 µM, the TGI [25] was 6.94 µM and the GI50 [26] was 4.73 µM. It also gave a TGI [26] of over 100 µM, a GI50 [27] of 14.3 µM and a TGI [27] of 27.3 µM. For the same compound, the GI50 [28] was 11.1 µM, the TGI [28] was 23.5 µM and the GI50 [29] was 12.3 µM. It also gave a TGI [29] of 26 µM, a GI50 [30] of 15.4 µM and a TGI [30] of 29.1 µM. For the same compound, the GI50 [31] was 10.3 µM, the TGI [31] was 22 µM and the GI50 [32] was 13.3 µM. The TGI [32] was 26.1 µM, the GI50 [33] was 14 µM and the TGI [33] was 39.2 µM. For the same compound, the GI50 [34] was 6.28 µM, the TGI [34] was 25.2 µM and the GI50 [35] was 13.2 µM. For the same compound, the TGI [35] was 26.5 µM, the GI50 [36] was 13.5 µM and the TGI [36] was 26.8 µM. For the same compound, the GI50 [37] was 5.05 µM, the TGI [37] was 16.9 µM and the GI50 [38] was 14.2 µM. For the same compound, the TGI [38] was 36.7 µM, the GI50 [39] was 10.5 µM and the TGI [39] was 22.3 µM. It also gave a GI50 [40] of 5.02 µM, a TGI [40] of 19.6 µM and a GI50 [41] of 12.1 µM. For the same compound, the TGI [41] was 29.7 µM, the GI50 [42] was 14.3 µM and the TGI [42] was 27.7 µM. It also gave a GI50 [43] of 4.72 µM, a TGI [43] of over 100 µM and a GI50 [44] of 4.25 µM. For the same compound, the TGI [44] was 16.2 µM, the GI50 [45] was 3.5 µM and the TGI [45] was over 100 µM. It also gave a GI50 [46] of 16 µM, a TGI [46] of 32.5 µM and a GI50 [47] of 12.1 µM. For the same compound, the TGI [47] was 44.9 µM, the GI50 [48] was 2.79 µM and the TGI [48] was 10.2 µM. The GI50 [49] was 6.17 µM, the TGI [49] was 20.8 µM and the GI50 [50] was 4.85 µM. It also gave a TGI [50] of 33.5 µM, a GI50 [51] of 5.76 µM and a TGI [51] of 18.6 µM. The GI50 [52] was 9.27 µM, the TGI [52] was 21.6 µM and the GI50 [53] was 14.8 µM. The TGI [53] was 39.6 µM, the GI50 [54] was 8.2 µM and the TGI [54] was 23.3 µM. It also gave a GI50 [55] of 15.8 µM, a TGI [55] of 32.3 µM and a GI50 [56] of 12.5 µM. For the same compound, the TGI [56] was 25.7 µM, the GI50 [57] was 3.89 µM and the TGI [57] was 16.8 µM. For the same compound, the GI50 [58] was 4.45 µM, the TGI [58] was over 100 µM and the GI50 [59] was 11.7 µM. For the same compound, the TGI [59] was 25.2 µM.
